# Source: patent publication US10076519B2 (CYTOKINETICS, INC., priority 2010, dated 2018)
# System: rabbit skeletal myofibrils (fast skeletal myofibrils)
# Assay: Activation of fast skeletal myofibrils (PUMA assay, PK/LDH-coupled ATPase at pCa25)
# Format: biochemical
# Details: AC1.4 determined according to the procedure of Example 39; reported as class symbols
# Procedure, shortened: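 Detergent-washed rabbit psoas myofibrils (~90% fast fibres, calcium-regulated) assayed at calcium giving 25% of maximal ATPase rate (pCa25). ADP turnover coupled via pyruvate kinase/lactate dehydrogenase to NADH oxidation, read at 340 nm. Buffer 12 mM PIPES, 2 mM MgCl2, 1 mM DTT, pH 6.8; AC1.4 values derived.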
row,Mean AC1.4,SMILES
1,D (D=>20 uM),CS(=O)(=O)N1CC(CNc2ccc(-c3ccc4[nH]ncc4c3)nn2)(c2ncccc2F)C1 [3-(3-fluoro(2-pyridyl))-3-{[(6-(1H-indazol-5-yl)pyridazin-3-yl)amino]methyl}-1-(methylsulfonyl)azetidine]
2,C (C=10-20 uM),CC(C)(CNc1nnc(-c2cccc(C(N)=O)c2)cc1C#N)c1ccc(F)cc1 [3-(5-cyano-6-{[2-(4-fluorophenyl)-2-methylpropyl]amino}pyridazin-3-yl)benzamide]
3,B (B=1-10 uM),"CC(C)(CNc1ccc(-c2cccc(C(N)=O)c2)nn1)c1ccc(F)cc1F [3-(6-{[2-(2,4-difluorophenyl)-2-methylpropyl]amino}pyridazin-3-yl)benzamide]"
4,A (A=<1 uM),CC(C)(CNc1ccc(-c2cccc(C(N)=O)c2)nn1)c1ccccc1Cl [3-(6-{[2-(2-chlorophenyl)-2-methylpropyl]amino}pyridazin-3-yl)benzamide]
5,B (B=1-10 uM),CCC(CNc1ccc(-c2cccc(C(N)=O)c2)nn1)c1ccccc1F (stereo not drawn) [3-(6-{[2-(2-fluoro-phenyl)butyl]amino}pyridazin-3-yl)benzamide]
6,A (A=<1 uM),CC(C)(CNc1ccc(-c2cccc(C(N)=O)c2)nn1)c1ccccc1F [3-(6-{[2-(2-fluorophenyl)-2-methylpropyl]amino}pyridazin-3-yl)benzamide]
7,D (D=>20 uM),COCCC(CNc1ccc(-c2cccc(C(N)=O)c2)nn1)c1ccccc1F (stereo not drawn) [3-(6-{[2-(2-fluorophenyl)-4-methoxybutyl]amino}pyridazin-3-yl)benzamide]
8,B (B=1-10 uM),"CC(C)(CNc1ccc(-c2cccc(C(N)=O)c2)nn1)c1ncc(F)cc1F [3-(6-{[2-(3,5-difluoro(2-pyridyl))-2-methylpropyl]amino}pyridazin-3-yl)benzamide]"
9,B (B=1-10 uM),CC(C)(CNc1ccc(-c2cccc(C(N)=O)c2)nn1)c1ncccc1F [3-(6-{[2-(3-fluoro(2-pyridyl))-2-methylpropyl]amino}pyridazin-3-yl)benzamide]
10,A (A=<1 uM),CC(C)(CNc1ccc(-c2cccc(C(N)=O)c2)nn1)c1cccc(F)c1 [3-(6-{[2-(3-fluorophenyl)-2-methylpropyl]amino}pyridazin-3-yl)benzamide]
11,B (B=1-10 uM),CC(C)(CNc1ccc(-c2cccc(C(N)=O)c2)nn1)c1ccc(Cl)cc1 [3-(6-{[2-(4-chlorophenyl)-2-methylpropyl]amino}pyridazin-3-yl)benzamide]
12,B (B=1-10 uM),Cc1cc(NCC(C)(C)c2ccc(F)cc2)nnc1-c1cccc(C(N)=O)c1 [3-(6-{[2-(4-fluorophenyl)-2-methylpropyl]amino}-4-methylpyridazin-3-yl)benzamide]
13,B (B=1-10 uM),Cc1cc(NCC(C)(C)c2ccc(F)cc2)nnc1-c1cccc(C#N)c1 [3-(6-{[2-(4-fluorophenyl)-2-methylpropyl]amino}-4-methylpyridazin-3-yl)benzenecarbonitrile]
14,B (B=1-10 uM),Cc1cc(-c2cccc(C(N)=O)c2)nnc1NCC(C)(C)c1ccc(F)cc1 [3-(6-{[2-(4-fluorophenyl)-2-methylpropyl]amino}-5-methylpyridazin-3-yl)benzamide]
15,C (C=10-20 uM),Cc1cc(-c2cccc(C#N)c2)nnc1NCC(C)(C)c1ccc(F)cc1 [3-(6-{[2-(4-fluorophenyl)-2-methylpropyl]amino}-5-methylpyridazin-3-yl)benzenecarbonitrile]

# Same assay, conditions: median AC1.4 class, procedure of Example 39
row,Mean AC1.4,SMILES
1,B (B=1-10 uM),"NC(=O)Cc1cnc(-c2ccc(NCC3(c4ncccc4F)CCC3)nn2)s1 [2-{2-[6-({[(3-fluoro-2-pyridyl)cyclobutyl]methyl}ami-no)pyridazin-3-yl]-1,3-thiazol-5-yl}acetamide]"
2,C (C=10-20 uM),"CC(C)(O)c1cnc(-c2ccc(NCC3(c4ncccc4F)CCC3)nn2)s1 [2-{2-[6-({[(3-fluoro-2-pyridyl)cyclobutyl]methyl}ami-no)pyridazin-3-yl]-1,3-thiazol-5-yl}propan-2-ol]"
3,D (D=>20 uM),"NC(=O)Cn1nnc(-c2ccc(NCC3(c4ncccc4F)CCC3)nn2)n1 [2-{5-[6-({[(3-fluoro-2-pyridyl)cyclobutyl]methyl}ami-no)pyridazin-3-yl]-1,2,3,4-tetraazol-2-yl}acetamide]"
4,A (A=<1 uM),CC(C)(CNc1ccc(-c2ccc3[nH]nc(NCCO)c3c2)nn1)c1ccc(F)cc1 [2-{[5-(6-{[2-(4-fluorophenyl)-2-methylpropyl]amino}pyridazin-3-yl)-1H-indazol-3-yl]amino}ethan-1-ol]
5,A (A=<1 uM),"O=C(NCc1cnc(-c2ccc(NCC3(c4ncccc4F)CCC3)nn2)s1)c1cn[nH]n1 [2H-1,2,3-triazol-4-yl-N-({2-[6-({[(3-fluoro(2-pyridyl))cyclobutyl]methyl}ami-no)pyridazin-3-yl](1,3-thiazol-5-yl)}methyl)carboxamide]"
6,B (B=1-10 uM),CC(C)(Nc1ccc(-c2cc(C(N)=O)ccc2F)nn1)c1ncccc1Cl [3-(6-{[1-(3-chloro(2-pyridyl))-isopropyl]amino}pyridazin-3-yl)-4-fluorobenzamide]
7,B (B=1-10 uM),CC(C)(Nc1ccc(-c2cccc(C(N)=O)c2)nn1)c1cccc(F)c1 [3-(6-{[1-(3-fluorophenyl)-isopropyl]amino}pyridazin-3-yl)benzamide]
8,B (B=1-10 uM),CC(C)(Nc1ccc(-c2cccc(C(N)=O)c2)nn1)c1ccc(F)cc1 [3-(6-{[1-(4-fluorophenyl)-isopropyl]amino}pyridazin-3-yl)benzamide]
9,A (A=<1 uM),CC(C)(CNc1ccc(-c2cc(C(N)=O)ccc2F)nn1)c1ncccc1Cl [3-(6-{[2-(3-chloro(2-pyridyl))-2-methylpropyl]amino}pyridazin-3-yl)-4-fluorobenzamide]
10,B (B=1-10 uM),CC(C)(CNc1ccc(-c2cc(C#N)ccc2F)nn1)c1ncccc1Cl [3-(6-{[2-(3-chloro(2-pyridyl))-2-methylpropyl]amino}pyridazin-3-yl)-4-fluorobenzenecarbonitrile]
11,A (A=<1 uM),CC(C)(CNc1ccc(-c2cccc(C(N)=O)c2)nn1)c1ncccc1Cl [3-(6-{[2-(3-chloro(2-pyridyl))-2-methylpropyl]amino}pyridazin-3-yl)benzamide]
12,B (B=1-10 uM),CC(C)(CNc1ccc(-c2cccc(C#N)c2)nn1)c1ncccc1Cl [3-(6-{[2-(3-chloro(2-pyridyl))-2-methylpropyl]amino}pyridazin-3-yl)benzenecarbonitrile]

# Same assay, conditions: median AC1.4 reported as class; procedure of Example 39
row,Mean AC1.4,SMILES
1,D (D=>20 uM),"CC(C)(C#N)c1cnc(-c2ccc(NCC3(c4ncccc4F)CCC3)nn2)s1 [2-{2-[6-({[(3-fluoro(2-pyridyl))cyclobutyl]methyl}ami-no)pyridazin-3-yl](1,3-thiazol-5-yl)}-2-methylpropanenitrile]"
2,B (B=1-10 uM),"CN(C)C(=O)Cc1cnc(-c2ccc(NCC3(c4ncccc4F)CCC3)nn2)s1 [2-{2-[6-({[(3-fluoro(2-pyridyl))cyclobutyl]methyl}ami-no)pyridazin-3-yl](1,3-thiazol-5-yl)}-N,N-dimethylacetamide]"
3,B (B=1-10 uM),"CNC(=O)Cc1cnc(-c2ccc(NCC3(c4ncccc4F)CCC3)nn2)s1 [2-{2-[6-({[(3-fluoro(2-pyridyl))cyclobutyl]methyl}ami-no)pyridazin-3-yl](1,3-thiazol-5-yl)}-N-methylacetamide]"
4,B (B=1-10 uM),"CNC(=O)Cc1cnc(-c2nnc(NCC3(c4ncccc4F)CCC3)cc2C)s1 [2-{2-[6-({[(3-fluoro(2-pyridyl))cyclobutyl]methyl}amino)-4-methylpyridazin-3-yl](1,3-thiazol-5-yl)}-N-methylacetamide]"
5,B (B=1-10 uM),"Cc1cc(NCC2(c3ncccc3F)CCC2)nnc1-c1ncc(CC(N)=O)s1 [2-{2-[6-({[(3-fluoro(2-pyridyl))cyclobutyl]methyl}amino)-4-methylpyridazin-3-yl]-1,3-thiazol-5-yl}acetamide]"
6,B (B=1-10 uM),"Cc1cc(NCC2(c3ncccc3F)CCC2)nnc1-c1ncc(CC(=O)O)s1 [2-{2-[6-({[(3-fluoro(2-pyridyl))cyclobutyl]methyl}amino)-4-methylpyridazin-3-yl]-1,3-thiazol-5-yl}acetic acid]"
7,D (D=>20 uM),"NC(=O)Cc1csc(-c2ccc(NCC3(c4ncccc4F)CCC3)nn2)n1 [2-{2-[6-({[(3-fluoro-2-pyridyl)cyclobutyl]methyl}ami-no)pyridazin-3-yl]-1,3-thiazol-4-yl}acetamide]"
8,B (B=1-10 uM),"O=C(O)Cc1cnc(-c2ccc(NCC3(c4ncccc4F)CCC3)nn2)s1 [2-{2-[6-({[(3-fluoro-2-pyridyl)cyclobutyl]methyl}ami-no)pyridazin-3-yl]-1,3-thiazol-5-yl}acetic acid]"
9,B (B=1-10 uM),NC(=O)Cc1ccc(F)c(-c2ccc(NCC3(c4ncccc4F)CCC3)nn2)c1 [2-{4-fluoro-3-[6-({[(3-fluoro(2-pyridyl))cyclobutyl]methyl}ami-no)pyridazin-3-yl]phenyl}acetamide]
10,A (A=<1 uM),"NC(=O)c1csc(NC(=O)c2ccc(NCC3(c4ncccc4F)CCC3)nn2)n1 [2-{[6-({[(3-fluoro-2-pyridyl)cyclobutyl]methyl}ami-no)pyridazin-3-yl]carbonylamino}-1,3-thiazole-4-carboxamide]"
11,D (D=>20 uM),NC(=O)C1CCCC1NC(=O)c1ccc(NCC2(c3ncccc3F)CCC2)nn1 (stereo not drawn) [2-{[6-({[(3-fluoro-2-pyridyl)cyclobutyl]methyl}ami-no)pyridazin-3-yl]carbonylamino}cyclopentane-carboxamide]
12,D (D=>20 uM),"NC(=O)c1coc(NC(=O)c2ccc(NCC3(c4ncccc4F)CCC3)nn2)n1 [2-{[6-({[(3-fluoro-2-pyridyl)cyclobutyl]methyl}amino)pyr-idazin-3-yl]carbonylamino}-1,3-oxazole-4-carboxamide]"
